{"source": "patent US20220396818A1", "about": "“POLYNUCLEOTIDE SYNTHESIS METHOD, KIT AND SYSTEM” (Oxford Nanopore Technologies PLC, priority 2019, published 2022)", "molecules": {"B1": {"name": "Endo V: Human Endonuclease V (Endo V) NEB (protein, UniProt Q8N8Q3 1-282, looked up)", "Endonuclease V": "MALEAAGGPPEETLSLWKREQARLKAHVVDRDTEAWQRDPAFSGLQRVGGVDVSFVKGDSVRACASLVVLSFPELEVVYEESRMVSLTAPYVSGFLAFREVPFLLELVQQLREKEPGLMPQVLLVDGNGVLHHRGFGVACHLGVLTDLPCVGVAKKLLQVDGLENNALHKEKIRLLQTRGDSFPLLGDSGTVLGMALRSHDRSTRPLYISVGHRMSLEAAVRLTCCCCRFRIPEPVRQADICSREHIRKSLGLPGPPTPRSPKAQRPVACPKGDSGESSALC"}}, "key": {"[1]": {"system": "Therminator X DNA polymerase", "test": "Incorporation of 3′-O-azidomethyl-dNTPs to the 3′ end of blunt-ended DNA by Therminator X DNA polymerase (gel)", "format": "biochemical, Thermococcus species 9° N", "details": "presence of Mn2+ ions, 37° C.", "description": "• 1. 5 μl of 10× Thermopol® buffer (20 mM Tris-HCl, 10 mM (NH4)2SO4, 10 mM KCl, 2 mM MgSO4, 0.1% Triton® X-100, pH 8.8, New England Biolabs) was mixed with 33.5 μl of sterile deionized water (ELGA VEOLIA) in a 1.5 ml Eppendorf tube. • 2. 2 μl of 20 μM primer (40 pmol, 1 equiv) (SEQ ID: NO: 68, FIG. 56a) and 3 μl of 20 μM template (60 pmol, 1.5 equiv) (SEQ ID: NO: 69, FIG. 56a) were added to the reaction mixture. • 3. 3′-O-modified-dTTP (2 μl of 100 μM) and MnCl2 (2.5 μl of 40 mM) were added. • 4. 2 μl of Therminator X DNA polymerase (20 U, New England BioLabs) was then added. • 5. The reaction was incubated for 30 minutes at 37° C. • 6. The reaction was stopped by addition of TBE-Urea sample buffer (Novex). • 7. The reaction was separated on polyacrylamide gel (15%) TBE buffer and visualized by ChemiDoc MP imaging system (BioRad)."}, "[2]": {"system": "Therminator IX DNA polymerase", "test": "Incorporation of 3′-O-modified-dNTPs opposite complementary base by Therminator IX DNA polymerase, with helper strand (gel)", "format": "biochemical, Thermococcus species 9° N", "description": "• 1. 2 μl of 10× Thermopol® buffer (20 mM Tris-HCl, 10 mM (NH4)2SO4, 10 mM KCl, 2 mM MgSO4, 0.1% Triton® X-100, pH 8.8, New England BioLabs) was mixed with 12.25 μl of sterile deionized water (ELGA VEOLIA) in 1.5 ml Eppendorf tube. • 2. 0.5 μl of 10 μM primer (5 pmol, 1 equiv) (SEQ ID NO: 22, FIG. 23j) and 0.75 μl of 10 μM template-A/G/T/C ([…], 1.5 equiv) (SEQ ID NOS: 23 to 26, FIG. 23j) and 1 μl of 10 μM helper strand-T/C/A/G (10 pmol, 2 equiv) (SEQ ID NOS: 27 to 30, FIG. 23j) were added to the reaction mixture. • 3. 3′-O-modified-dTTP/dCTP/dATP/dGTP (2 μl of 100 μM) and MnCl2 (1 μl of 40 mM) were added. • 4. 1.5 μl of Therminator IX DNA polymerase (15 U, New England BioLabs) was then added. • 5. […] The reaction was stopped by addition of TBE-Urea sample buffer (Novex). • 7. The reaction was separated on polyacrylamide gel (15%) TBE buffer and visualized by ChemiDoc MP imaging system (BioRad).\n• 1. 5 μl of reaction mixture was added to 5 μl of TBE-Urea sample buffer (Novex) in a sterile 1.5 ml Eppendorf tube and heated to 95° C. for 5 minutes using a heat ThermoMixer (Eppendorf). • 2. 5 μl of the sample were then loaded into the wells of a 15% TBE-Urea gel 1.0 mm×10 well (Invitrogen) which contained preheated 1×TBE buffer Thermo Scientific (89 mM Tris, 89 mM boric acid and 2 mM EDTA). • 3. […]"}, "DNA containing inosine [3]": {"system": "DNA containing inosine", "test": "Two-step cleavage of inosine-containing oligonucleotide with hAAG and base or Endo VIII (gel)", "format": "biochemical", "description": "A cleavage reaction on oligonucleotides was carried out using the procedure below: • 1. A pipette (Gilson) was used to transfer 41 μl sterile distilled water (ELGA VEOLIA) into a 1.5 ml Eppendorf tube. • 2. 50 of 10× ThermoPol® reaction buffer NEB (20 mM Tris-HCl, 10 mM (NH4)2SO4, 10 mM KCl, 2 mM MgSO4, 0.1% Triton® X-100, pH 8.8) were then added into the same Eppendorf tube. • 3. 10 each of oligonucleotides (FIG. 18e); template (SEQ ID NO: 3) or any fluorescently tagged long oligo strand, primer with T (SEQ ID NO: 4) and control (SEQ ID NO: 5) all at 5 pmols were added into the same tube. • 4. 10 of Human Alkyladenine DNA Glycosylase (hAAG) NEB (10 units/0) was added into the same tube. • 5. Reaction mixture was then gently mixed by resuspension with a pipette, centrifuged at 13,000 rpm for 5 seconds and incubated at 37° C. for 1 hour. • 6. Typically after incubation time had elapsed, the reaction was terminated by enzymatic heat inactivation (i.e. 65° C. for 20 minutes).\n• 1. 2 μl (10-100 ng/0) DNA was added into a sterile 1.5 ml Eppendorf tube. • 2. 40 μl (0.2M) NaOH or 1.5 μl Endo VIII NEB (10 units/0) and 5 μl 10× Reaction Buffer NEB (10 mM Tris-HCl, 75 mM NaCl, 1 mM EDTA, pH 8 @ 25° C.) was also added into the same tube and gently mixed by resuspension and centrifugation at 13000 rpm for 5 sec. • 3. […]"}, "DNA containing inosine [4]": {"system": "DNA containing inosine", "test": "One-step cleavage of oligonucleotide with Endonuclease V (gel)", "format": "biochemical", "details": "37° C.", "description": "Cleavage reaction on oligonucleotides was carried out using the procedure below: • 1. A pipette (Gilson) was used to transfer 41 μl sterile distilled water (ELGA VEOLIA) into a 1.5 ml Eppendorf tube. • 2. 50 of 10× Reaction Buffer® NEB (50 mM Potassium Acetate, 20 mM Tris-acetate, 10 mM Magnesium Acetate, 1 mM DTT, pH 7.9@25° C.) was then added into the same Eppendorf tube. • 3. 1 μl each of oligonucleotides (FIG. 24d); Template (SEQ ID NO: 31) or any fluorescently tagged long oligo strand, Primer with T (SEQ ID NO: 32) and control (SEQ ID NO: 33) and helper strand (SEQ ID NO: 34), all at 5 pmols, were added into the same tube. • 4. 1 μl of Human Endonuclease V (Endo V) NEB (10 units/μl) was added into the same tube. • 5. Reaction mixture was then gently mixed by resuspension with a pipette, centrifuged at 13,000 rpm for 5 seconds and incubated at 37° C. for 1 hour. • 6. Typically after incubation time had elapsed, reaction was terminated by enzymatic heat inactivation (i.e. 65° C. for 20 minutes).\n(§1) • 1. 5 μl of DNA and TBE-Urea sample buffer (Novex) was added into a sterile 1.5 ml Eppendorf tube and heated to 95° C. for 2 minutes using a heat thermoblock (Eppendorf). • 2. The DNA mixtures were then loaded into the wells of a 15% TBE-Urea gel 1.0 mm×10 well (Invitrogen) which contained preheated 1×TBE buffer Thermo Scientific (89 mM Tris, 89 mM boric acid and 2 mM EDTA). • 3. X-cell sure lock module (Novex) was fastened in place and electrophoresis performed at the following conditions; 260V, 90 Amps for 40 minutes at room temperature. • 4. Detection and visualization of DNA in the gel was carried out with Chemidoc MP (BioRad) using Cy3 LEDS. Visualization and analysis was carried out on the Image lab 2.0 platform."}, "Hairpin Oligonucleotide": {"system": "Hairpin Oligonucleotide", "test": "Cleavage of hairpin oligonucleotide with Endonuclease V (gel)", "format": "biochemical", "details": "37° C.", "description": "Cleavage reaction on hairpin oligonucleotides was carried out using the procedure below: • 1. A pipette (Gilson) was used to transfer 43 μl sterile distilled water (ELGA VEOLIA) into a 1.5 ml Eppendorf tube. • 2. 50 of 10× Reaction Buffer® NEB (50 mM potassium acetate, 20 mM Tris-acetate, 10 mM magnesium acetate, 1 mM DTT, pH 7.9@25° C.) was then added into the same Eppendorf tube. • 3. 111 of hairpin oligonucleotide (SEQ ID NO: 45, FIG. 28c) having an amount of 5 pmols was added into the same tube. • 4. 10 of Human Endonuclease V (Endo V) NEB (30 units/μl) was added into the same tube. • 5. […] Typically after incubation time had elapsed, the reaction was terminated by enzymatic heat inactivation (i.e. 65° C. for 20 minutes).\nas §1, with “ThermoMixer” for “thermoblock”, “ChemiDoc” for “Chemidoc”"}}, "data": [{"molecule": "3′-O-azidomethyl-dATP", "values": [{"measurement": "Incorporation efficiency", "setting": "[1]", "result": "> 99", "unit": "%"}]}, {"molecule": "3′-O-azidomethyl-dCTP", "values": [{"measurement": "Incorporation efficiency", "setting": "[1]", "result": "> 90", "unit": "%"}]}, {"molecule": "3′-O-azidomethyl-dGTP", "values": [{"measurement": "Incorporation efficiency", "setting": "[1]", "result": "> 99", "unit": "%"}]}, {"molecule": "3′-O-azidomethyl-dTTP", "values": [{"measurement": "Incorporation efficiency", "setting": "[1]", "result": "> 99", "unit": "%"}, {"measurement": "primer remains unextended", "setting": "[2]; after 20 minutes at 37° C. and 47° C.", "result": 10, "unit": "%"}, {"measurement": "Incorporation", "setting": "[2]; in the presence of a helper strand, after 5 minutes", "result": 90, "unit": "%"}]}, {"molecule": "hAAG DNA glycosylase: Human Alkyladenine DNA Glycosylase (hAAG) NEB", "values": [{"measurement": "yield of cleaved DNA (cleaved to uncleaved DNA ratio)", "setting": "DNA containing inosine [3]; with a helper strand", "result": 50, "unit": "%"}, {"measurement": "yield of cleaved DNA (cleaved to uncleaved DNA ratio)", "setting": "DNA containing inosine [3]; without a helper strand", "result": 10, "unit": "%"}]}, {"molecule": "B1", "values": [{"measurement": "yield of cleaved DNA (cleaved to uncleaved DNA ratio)", "setting": "DNA containing inosine [4]; positive control that contained both full length strands", "result": 80, "unit": "%"}, {"measurement": "DNA cleavage yield", "setting": "DNA containing inosine [4]; with a helper strand", "result": "> 99", "unit": "%"}, {"measurement": "yield of cleaved DNA", "setting": "DNA containing inosine [4]; without a helper strand", "result": "> 99", "unit": "%"}, {"measurement": "yield of digested DNA", "setting": "Hairpin Oligonucleotide; after 5 minutes", "result": "~98", "unit": "%"}, {"measurement": "yield of digested DNA", "setting": "Hairpin Oligonucleotide; after 10 minutes", "result": "~99", "unit": "%"}, {"measurement": "yield of digested DNA", "setting": "Hairpin Oligonucleotide; after 30 minutes", "result": "~99", "unit": "%"}, {"measurement": "yield of digested DNA", "setting": "Hairpin Oligonucleotide; after 1 hr", "result": "~99", "unit": "%"}]}]}
